Results as given in patent US8653048B2 (Sanlugen Pharmatech Ltd., priority 2009, dated 2014).

Tests used:
[1] = Physiological stability in PBS (pH=7.4) (HPLC); assay type: physicochemical; settings: for stability in PBS (pH=7.4) (in words): 0-24 h; for HPLC peak area of drug: PBS (pH = 7.4)
[2] = Pharmacokinetics of SL-01 and SL-02 in mice, intragastric; assay type: in vivo; settings: both sexes, Kunming, mouse, plasma, po, SL-01 100 mg/kg intragastric
Procedure: Kunming strain white mice (25+1 g, provided by Experimental Animal Center of Shandong University, half of which were male, half were female).
125 mg of SL-01 or SL-02 were weighed accurately and added into 10 mL volumetric flask. Water (containing 0.1% Tween-80) was added to the mark and mixed uniformly to get the suspensions of SL-01 or SL-02.
100 healthy Kunming mice were taken and divided into two groups randomly. The first group was given SL-01 and the second group was given SL-02. Five mice were settled parallel at each time point. SL-01 and SL-02 were administrated intragastricly with a dosage at 100 mg/kg (equivalent to 0.2 mL per mouse). The mice were fasted but allowed to drink for a 12 h period before administration. Blood samples were drawn from eyebase veniplex at 5 min, 15 min, 30 min, 45 min, 1 h, 2 h, 4 h, 6 h, 8 h, 12 h, 24 h, 48 h after the administration and put into heparin sodium treated centrifuge tubes containing 2.5 μL tetrahydrouridine solution (THU, 10 mg/ml) and centrifuged for 15 min at 4000 r/min. Isopropanol (1 mL) was added into the solution and vortexed for 30 s and kept still for 5 min. 2.5 ml of EtOAc was added and votexed and centrifuged at 4000 rpm for 15 minutes. The supernatant was taken and dried by blowing in nitrogen. The dried sample was redissolved in 200 μL HPLC mobile phase solution. 20 μL sample was loaded to the HPLC. The chromatography and peak area was recorded. The plasma concentrations of SL-01 and SL-02 was calculated. The average concentration of SL-01 and SL-02 was plotted with the time.

[3] = tested on: HT29 tumor transplanted in nude mice; test: HT29 tumor transplanted in nude mice, intravenous administration; settings: for inhibitory rate (relative tumor volume) at the end of the experiments: HT29; for weight loss rate: 20 mg/kg i.v., d17, HT29 nude mice; for toxicity judged by body weight loss, in words: mouse, in vivo, iv
Procedure: 1. […] The drugs were packaged and stored at −20° C.
The treatment starting day was the first day (d0). […] The tumor tissues were removed and weighed. The inhibition rate of tumor growth was calculated.

[4] = Stability in human blood plasma (HPLC); assay type: in vitro ADME; settings: for stability in blood plasma (in words): 0-12 h; for Degrade % / chromatography peak area of drug: plasma
Procedure: Isopropanol (1 mL) was then added into the blood sample and vortexed for 30 s and kept still for 5 min. 2.5 ml of EtOAc was added and votexed and centrifuged at 4000 rpm for 15 minutes. The supernatant was taken and dried by blowing in nitrogen. The dried sample was redissolved in 200 μL HPLC mobile phase solution. 20 μL sample was loaded to the HPLC.
The samples were processed using the standard method.

[5] = tested on: A549: a human lung cancer cell line; test: MTT analytical method, A549 cells; assay type: cell-based; settings: 72 h
Description: MTT analytical method was used to test the prodrugs for various tumor cells.
• 1) Cell lines: NCI-H460, A549, LOVO, HT-29, MDA-MB-231, SGC7901, HepG2 or BEL-7402 cell lines. Culture: adherent culturing in D-MEM (Hyclone, Inc.) containing 10% fetal calf serum. The initial cell concentration was about 3×10^5 /mL. The cell was passaged by 1:3 dilution in every 2-3 days. On the day before the test, the cell was passaged by 1:2 dilution, the cell concentration for the test was 5-10×10^5 /mL. • 2) Dissolution and dilution of compounds: according to the weight and molecular weight of the drugs provided, 100-200 μL of DMSO was added. Then normal saline was added to make the final diluted concentration of the drugs be 5 mM (Note that the final concentration of DMSO should not be more than 10%). • 3) D-MEM or RPMI 1640 cell culture medium, Gibco, Inc. • 4) Fetal calf serum Hyclone, Inc. • 5) Cell dissociation buffer, 0.25% Trypsin+0.02% EDTA. • 6) MTT solution, MTT Powder (Sigma) were dissolved in PBS buffer solution to make a solution of 5 mg/mL. The solution was filtered by a 0.22 μm micropore membrane and stored at −20° C. • 7) PBS buffer solution. • 8) 10% acidified SDS, 0.01N HCl. • 9) Centrifuge tubes, haustorial tubes etc. (BD, Inc.); 96-well plates (Costatr, Inc.) Procedures: • 1) Cell inoculation: Cells grown for 24 hours after passage, which cells were in good growth state, were used. The cells were harvested by the routine method. The cell concentration was adjust with a fresh culture solution to 2×10^5/mL (for adherent cells)-3×10^5/mL (for suspension cells). The adherent cells were inoculated at 100 μL/well and then cultivated in an incubator with 5% CO2 at 37° C. for 24 h. Thereafter the used culture solution was removed and 95 μL/well of fresh culture solution was added. The suspension cells were inoculated at 95 μL/well directly. • 2) Drugs treatment: 9 concentration grades were designed for every drug, and every concentration had 3 wells. The control group had 5 wells. The control group was tested simultaneously in each test. The final concentrations of a drug added were […], and 5 μL normal saline was added to the control group. • 3) Cell culture and detection: the cells were cultured in an incubator with 5% CO2 at 37° C. for 72 h after the drug was added, then 10 μL MTT was added to each well and the culture was continued for 4 h. 100 μL of 10% SDS (containing 0.01N HCl) was added to each well. After 24 h, the absorbance (A) of each well was determined by Bio-rad 680 ELISA with the detection wavelength of 570 nm and the reference wavelength of 630 nm. Calculation:
First, the absorbance (A) of each well was averaged (removing any data with big difference). […] A0 was the mean absorbance of the control wells. The effect curve of the drug concentration was drawn using EXCEL software and the drug concentration for 50% cell survival was calculated according to an appropriate computing methods.

SMILES	stability in PBS (pH=7.4) (in words) [1]	HPLC peak area of drug ([1]; 0 min)	HPLC peak area of drug ([1]; 1 h)	HPLC peak area of drug ([1]; 2 h)	HPLC peak area of drug ([1]; 4 h)	HPLC peak area of drug ([1]; 6 h)	HPLC peak area of drug ([1]; 8 h)	HPLC peak area of drug ([1]; 12 h)	HPLC peak area of drug ([1]; 24 h)	weight loss rate [3] [%]	toxicity judged by body weight loss, in words [3]	stability in blood plasma (in words) [4]	chromatography peak area of drug ([4]; 0 min)	chromatography peak area of drug ([4]; 1 h)	chromatography peak area of drug ([4]; 2 h)	chromatography peak area of drug ([4]; 4 h)	chromatography peak area of drug ([4]; 6 h)	chromatography peak area of drug ([4]; 8 h)	chromatography peak area of drug ([4]; 12 h)	IC50 [5] [nM]	further results
CCCCCCCCCCCCOC(=O)c1nccnc1C(=O)Nc1ccn([C@@H]2O[C@H](CO)[C@@H](O)C2(F)F)c(=O)n1 [Compound 4, Dodecyl-3-((1-((2R,4R,5R)-3,3-difluoro-4-hydroxy-5-(hydroxymethyl)-tetrahydrofuran-2-yl)-2-oxo-1,2-dihydropyrimidin-4-yl)carbamoyl)pyrazine-2-carboxylate]	stable	399795.688	379856.688	397725	373725.406	360109.813	362068.688	386125.688	387541.688	8	neither the gemcitabine positive control group nor SL-01 has obvious toxicity	degradable	336275.344	326948.219	261917.094	178242.781	59465.750	43894.633	12894.514	< 2000	AUC(0-t) ([2]; analyte SL-01, read-out: AUC0-t, SL-01 Administration Group): 1810 ng·h/mL; Cmax ([2]; analyte SL-01, read-out: Cmax, SL-01 Administration Group): 4370 ng/mL; MRT last ([2]; analyte SL-01, read-out: MRT0-t, SL-01 Administration Group): 21.6 min; half-life ([2]; analyte SL-01, read-out: T1/2, SL-01 Administration Group (converted)): 31.1 min; Tmax ([2]; analyte SL-01, read-out: Tmax, SL-01 Administration Group): 15 min; inhibitory rate (relative tumor volume) at the end of the experiments ([3]; 20 mg/kg i.v. (Gem group; SL01 middle dosage group)): 23%; inhibitory rate (relative tumor volume) at the end of the experiments ([3]; SL01 high dosage group 40 mg/kg i.v.): 7%; Degrade % ([4]; 0 min): 0%; Degrade % ([4]; 1 h): 2.77%; Degrade % ([4]; 2 h): 22.11%; Degrade % ([4]; 4 h): 46.99%; Degrade % ([4]; 6 h): 82.31%; Degrade % ([4]; 8 h): 89.64%; Degrade % ([4]; 12 h): 96.17%
Nc1ccn([C@@H]2O[C@H](CO)[C@@H](O)C2(F)F)c(=O)n1 [Gemcitabine, gemcitabine, reference compound]	stable	657583.875	646932.375	651326.375	647537.813	618724	635026.875	600425.125	603669.813	4	neither the gemcitabine positive control group nor SL-01 has obvious toxicity	stable	562562.938	592859.625	466418.094	483743.594	552648.313	540059.125	544300.688	< 2000	–
